# In PubChem BioAssay (NCI):
#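 A five-concentration, 48-hour dose response in 96-well plates underlies each endpoint, interpolated linearly between surrounding concentrations. The concentration for 50% growth inhibition is given as GI50. TGI is the concentration that stops growth completely.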
# Tests used:
# Assay in all cases: DTP human tumour cell line panel, 48 h
# [1] = system: MALME-3M melanoma
# [2] = system: HCC-2998 colon
# [3] = system: NCI-H460 lung
# [4] = system: PC-3 prostate
# [5] = system: MDA-MB-435
# [6] = system: SW-620 colon
# [7] = system: SK-MEL-5 melanoma
# [8] = system: HL-60(TB) leukemia
# [9] = system: UACC-62 melanoma
# [10] = system: OVCAR-4 ovarian
# [11] = system: MDA-MB-231 breast
# [12] = system: HOP-62 NSCLC
# [13] = system: SK-OV-3 ovarian
# [14] = system: SF-539 CNS
# [15] = system: HCT-15 colon
# [16] = system: NCI-H226 lung
# [17] = system: MOLT-4 leukemia
# [18] = system: LOX IMVI melanoma
# [19] = system: OVCAR-5 ovarian
# [20] = system: TK-10 renal
# [21] = system: SK-MEL-2 melanoma
# [22] = system: OVCAR-8 ovarian
# [23] = system: UACC-257 melanoma
# [24] = system: BT-549 breast
# [25] = system: MCF7 breast
# [26] = system: SNB-75 CNS
# [27] = system: NCI-H522 lung
# [28] = system: CCRF-CEM leukemia
smiles,measurement,setting,value
O=C1C(=O)c2ccccc2C(O)=C1CCCc1ccc(C2CCCC2)cc1,GI50,[1],6.55 µM
same,TGI,[1],38 µM
same,GI50,[2],2.99 µM
same,TGI,[2],8.34 µM
same,GI50,[3],3.11 µM
same,TGI,[3],11.8 µM
same,GI50,[4],3.3 µM
same,TGI,[4],19.7 µM
same,GI50,[5],5.1 µM
same,TGI,[5],38.8 µM
same,GI50,[6],4.87 µM
same,TGI,[6],17.1 µM
same,GI50,[7],3.79 µM
same,TGI,[7],14.5 µM
same,GI50,[8],2.9 µM
same,TGI,[8],6.92 µM
same,GI50,[9],3.73 µM
same,TGI,[9],18.5 µM
same,GI50,[10],5.92 µM
same,TGI,[10],39.7 µM
same,GI50,[11],11.1 µM
same,TGI,[11],43.9 µM
same,GI50,[12],8.04 µM
same,TGI,[12],23.6 µM
same,GI50,[13],12.5 µM
same,TGI,[13],56.9 µM
same,GI50,[14],5.57 µM
same,TGI,[14],25.9 µM
same,GI50,[15],4.25 µM
same,TGI,[15],16.9 µM
same,GI50,[16],3.77 µM
same,TGI,[16],20.5 µM
same,GI50,[17],3.72 µM
same,TGI,[17],12.3 µM
same,GI50,[18],3.16 µM
same,TGI,[18],9.22 µM
same,GI50,[19],11 µM
same,TGI,[19],23.6 µM
same,GI50,[20],6.99 µM
same,TGI,[20],34.1 µM
same,GI50,[21],7.2 µM
same,TGI,[21],32.7 µM
same,GI50,[22],5.8 µM
same,TGI,[22],60 µM
same,GI50,[23],3.91 µM
same,TGI,[23],28.2 µM
same,GI50,[24],10.5 µM
same,TGI,[24],48.6 µM
same,GI50,[25],4.21 µM
same,TGI,[25],21.1 µM
same,GI50,[26],6.55 µM
same,TGI,[26],38.7 µM
same,GI50,[27],5.01 µM
same,TGI,[27],25.9 µM
same,GI50,[28],4.62 µM
same,TGI,[28],30.3 µM
